In patent US7348425B2, “Inhibitors of HCV replication” (Bristol-Myers Squibb Company, priority 2004, dated 2008):

Tests used:
[1] = target: T1, HCV NS5B RdRp genotype 1b (Hepatitis C virus genotype 1b, UniProt Q9WMX2); experiment: Modified HCV NS5B RdRp enzyme assay (with preincubation); type: biochemical; conditions: modified method (with preincubation)
T1 construct: The protein was expressed with an 18 amino acid C-terminal truncation to enhance the solubility; made in house; host or cells: E. coli BL21 (DE3), pET21a
T1 sequence (Q9WMX2 2420-2992): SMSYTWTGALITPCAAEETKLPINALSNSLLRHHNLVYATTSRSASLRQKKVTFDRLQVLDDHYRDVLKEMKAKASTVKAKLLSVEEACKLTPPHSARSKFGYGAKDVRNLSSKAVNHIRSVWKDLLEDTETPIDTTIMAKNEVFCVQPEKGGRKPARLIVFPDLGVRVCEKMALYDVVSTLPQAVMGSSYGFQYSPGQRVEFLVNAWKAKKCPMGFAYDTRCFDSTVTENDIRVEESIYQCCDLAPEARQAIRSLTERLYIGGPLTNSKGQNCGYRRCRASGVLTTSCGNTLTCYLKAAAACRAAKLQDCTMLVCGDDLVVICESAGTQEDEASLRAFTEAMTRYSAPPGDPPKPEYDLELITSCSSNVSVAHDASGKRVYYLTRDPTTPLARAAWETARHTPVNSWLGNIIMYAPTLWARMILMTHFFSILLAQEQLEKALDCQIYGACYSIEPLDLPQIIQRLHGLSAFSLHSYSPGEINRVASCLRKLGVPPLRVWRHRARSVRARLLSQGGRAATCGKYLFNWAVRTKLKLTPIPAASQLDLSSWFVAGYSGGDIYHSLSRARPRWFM
Method: HCVNS5B RdRp cloning, expression, and purification. The cDNA encoding the NS5B protein of HCV, genotype 1b, was cloned into the pET21a expression vector. The protein was expressed with an 18 amino acid C-terminal truncation to enhance the solubility. The E. coli competent cell line BL21 (DE3) was used for expression of the protein. Cultures were grown at 37° C. for ˜4 hours until the cultures reached an optical density of 2.0 at 600 nm. The cultures were cooled to 20° C. and induced with 1 mM IPTG. Fresh ampicillin was added to a final concentration of 50 μg/ml and the cells were grown overnight at 20° C.
Cell pellets (3 L) were lysed for purification to yield 15-24 mgs of purified NS5B. The lysis buffer consisted of 20 mM Tris-HCl, pH 7.4, 500 mM NaCl, 0.5% triton X-100, 1 mM DTT, 1 mM EDTA, 20% glycerol, 0.5 mg/ml lysozyme, 10 mM MgCl2, 15 ug/ml deoxyribonuclease I, and Complete TM protease inhibitor tablets (Roche). After addition of the lysis buffer, frozen cell pellets were resuspended using a tissue homogenizer. To reduce the viscosity of the sample, aliquots of the lysate were sonicated on ice using a microtip attached to a Branson sonicator. The sonicated lysate was centrifuged at 100,000×g for 1 hr at 4° C. and filtered through a 0.2 μm filter unit (Corning).
The protein was purified using three sequential chromatography steps: Heparin sepharose CL-6B, polyU sepharose 4B, and Hitrap SP sepharose (Pharmacia). The chromatography buffers were identical to the lysis buffer but contained no lysozyme, deoxyribonuclease I, MgCl2 or protease inhibitor and the NaCl concentration of the buffer was adjusted according to the requirements for charging the protein onto the column. Each column was eluted with a NaCl gradient which varied in length from 5-50 column volumes depending on the column type. After the final chromatography step, the resulting purity of the enzyme is >90% based on SDS-PAGE analysis. The enzyme was aliquoted and stored at −80° C.
Standard HCV NS5B RdRp enzyme assay. HCV RdRp genotype Ib assays were run in a final volume of 60 μl in 96 well plates (Costar 3912). The assay buffer is composed of 20 mM Hepes, pH 7.5, 2.5 mM KCl, 2.5 mM MgCl2, 1 mM DTT, 1.6 U RNAse inhibitor (Promega N2515), 0.1 mg/ml BSA (Promega R3961), and 2% glycerol. All compounds were serially diluted (3-fold) in DMSO and diluted further in water such that the final concentration of DMSO in the assay was 2%. HCV RdRp genotype 1b enzyme was used at a final concentration of 28 nM. A polyA template was used at 6 nM, and a biotinylated oligo-dT12 primer was used at 180 nM final concentration. Template was obtained commercially (Amersham 27-4110). Biotinylated primer was prepared by Sigma Genosys. ^3H-UTP was used at 0.6 μCi (0.29 μM total UTP). Reactions were initiated by the addition of enzyme, incubated at 30° C. for 60 min, and stopped by adding 25 μl of 50 mM EDTA containing SPA beads (4 μg/μl, Amersham RPNQ 0007). Plates were read on a Packard Top Count NXT after >1 hr incubation at room temperature.
Modified HCV NS5B RdRp enzyme assay. A modified enzyme assay was performed essentially as described for the standard enzyme assay except for the following: The biotinylated oligo dT12 primer was precaptured on streptavidin-coated SPA beads by mixing primer and beads in assay buffer and incubating at room temperature for one hour. Unbound primer was removed after centrifugation. The primer-bound beads were resuspended in 20 mM Hepes buffer, pH 7.5 and used in the assay at final concentrations of 20 nM primer and 0.67 μg/μl beads. Order of addition in the assay: enzyme (14 nM) was added to diluted compound followed by the addition of a mixture of template (0.2 nM), ^3H-UTP (0.6 μCi, 0.29 μM), and primer-bound beads, to initiate the reaction; concentrations given are final. Reactions were allowed to proceed for 4 hours at 30° C.
The IC50 values for compounds were determined using seven different [I]. […]

[2] = system: HCV replicon; experiment: HCV replicon FRET assay; type: cell-based; conditions: Hepatitis C virus; FRET assay; read-out: EC50
Method: The IC50 values for compounds were determined using seven different [I]. IC50 values were calculated from the inhibition using the formula y=A+((B−A)/(1+((C/x)^D))). FRET Assay Preparation. To perform the HCV FRET screening assay, 96-well cell culture plates were used. The FRET peptide (Anaspec, Inc.) (Taliani et al., Anal. Biochem. 240:60-67 (1996), hereby incorporated by reference in its entirety) contains a fluorescence donor, EDANS, near one end of the peptide and an acceptor, DABCYL, near the other end. The fluorescence of the peptide is quenched by […] resonance energy transfer (RET) between the donor and the acceptor, but as the NS3 protease cleaves the peptide the products are released from RET quenching and the fluorescence of the donor becomes apparent. The assay reagent was made as follows: 5× cell Luciferase cell culture lysis reagent from Promega (#E153A) diluted to 1× with dH2O, NaCl added to 150 mM final, the FRET peptide diluted to 20 uM final from a 2 mM stock.
To prepare plates, HCV replicon cells, with or without a Renilla luciferase reporter gene, were trypsinized and placed into each well of a 96-well plate with titrated test compounds added in columns 3 through 12; columns 1 and 2 contained a control compound (HCV protease inhibitor), and the bottom row contained cells without compound. The plates were then placed in a CO2 incubator at 37 degrees C.
Assays. Subsequent to addition of the test compounds described above (FRET Assay Preparation), at various times the plate was removed and Alamar blue solution (Trek Diagnostics, #00-100) was added per well as a measure of cellular toxicity. After reading in a Cytoflour 4000 instrument (PE Biosystems), plates were rinsed with PBS and then used for FRET assay by the addition of 30 ul of the FRET peptide assay reagent described above (FRET Assay Preparation) per well. The plate was then placed into the Cytoflour 4000 instrument which had been set to 340 excite/490 emission, automatic mode for 20 cycles and the plate read in a kinetic mode. Typically, the signal to noise using an endpoint analysis after the reads was at least three-fold. Alternatively, after Alamar blue reading, plates were rinsed with PBS, 50 ul of DMEM (high glucose) without phenol red was added and plates were then used for luciferase assay using the Promega Dual-Glo Luciferase Assay System.
Compound analysis was determined by quantification of the relative HCV replicon inhibition and the relative cytotoxicity values. To calculate cytoxicity values, the average Alamar Blue fluorescence signals from the control wells were set as 100% non-toxic. The individual signals in each of the compound test wells were then divided by the average control signal and multiplied by 100% to determine […]. To calculate the HCV replicon inhibition values, an average background value was obtained from the two wells containing the highest amount of HCV protease inhibitor at the end of the assay period. These numbers were similar to those obtained from naïve Huh-7 cells.
The background numbers were then subtracted from the average signal obtained from the control wells and this number was used as 100% activity. The individual signals in each of the compound test wells were then divided by the averaged control values after background subtraction and multiplied by 100% to determine percent activity. EC50 values for a protease inhibitor titration were calculated as the concentration which caused a 50% reduction in FRET or luciferase activity. The two numbers generated for the compound plate, percent cytoxicity and percent activity were used to determine compounds of interest for further analysis.

Structure (SMILES) | IC50 [1] [µM] | EC50 [2] [µM]
O=C(O)/C=C/c1cccc(-c2nc(C3(NC(=O)c4ccc5c(C6CCCCC6)c6n(c5c4)CC=Cc4ccccc4-6)CCCC3)c[nH]2)c1 | 0.02 to 1 | 0.01 to 1
COC(=O)/C=C/c1ccc(NC(=O)C2(NC(=O)c3ccc4c(C5CCCCC5)c5n(c4c3)CCCc3ocnc3-5)CCCC2)cc1 | > 1 | 1 to 10
O=C(O)/C=C/c1ccc(NC(=O)C2(NC(=O)c3ccc4c(C5CCCCC5)c5n(c4c3)CCCc3ocnc3-5)CCCC2)cc1 | 0.02 to 1 | 0.01 to 1
O=C(NC1(C(=O)OCc2ccccc2)CCCC1)c1ccc2c(C3CCCCC3)c3n(c2c1)CCCc1cc(O)ccc1-3 | > 1 | 1 to 10
O=C(O)c1ccc2c(C3CCCCC3)c3n(c2c1)CCOc1ncccc1-3 | 0.02 to 1 | 1 to 10
CCOC(=O)c1nc(-c2ccc(NC(=O)C3(NC(=O)c4ccc5c(C6CCCCC6)c6n(c5c4)CCCc4ccccc4-6)CCCC3)cc2)cs1 | > 1 | 0.01 to 1
O=C(NC1(C(=O)Nc2ccc(-c3csc(C(=O)O)n3)cc2)CCCC1)c1ccc2c(C3CCCCC3)c3n(c2c1)CCCc1ccccc1-3 | 0.02 to 1 | 0.01 to 1
O=C(O)c1ccc2c(C3CCCCC3)c3n(c2c1)C/C=C\CN(CCO)c1ccccc1-3 | > 1 | 1 to 10
O=C(O)c1ccc2c(C3CCCCC3)c3n(c2c1)CCCCN(CCO)c1ccccc1-3 | > 1 | 1 to 10
O=C1Cn2c(c(C3CCCCC3)c3ccc(C(=O)NC4(C(=O)Nc5ccc(-c6cscn6)cc5)CCCC4)cc32)-c2ccccc2N1 | 0.02 to 1 | 0.01 to 1
CC(C)(C)OC(=O)N1C/C=C\Cn2c(c(C3CCCCC3)c3ccc(C(=O)O)cc32)-c2cnccc21 | > 1 | > 10
O=C(O)/C=C/c1ccc(NC(=O)C2(NC(=O)c3ccc4c(C5CCCCC5)c5n(c4c3)CCOc3ncccc3-5)CCCC2)cc1 | 0.02 to 1 | 0.01 to 1
CC(C)(C)OC(=O)N1CCCCn2c(c(C3CCCCC3)c3ccc(C(=O)O)cc32)-c2cnccc21 | > 1 | > 10
O=C(O)/C=C/c1ccc(NC(=O)C2(NC(=O)c3ccc4c(C5CCCCC5)c5n(c4c3)CCCN(CCO)c3ccccc3-5)CCCC2)cc1 | 0.02 to 1 | 0.01 to 1
COC(=O)c1ccc2c(C3CCCCC3)c3n(c2c1)CC(C(=O)O)Cc1ccccc1-3 (stereo not drawn) | > 1 | > 10
O=C(O)c1ccc2c(C3CCCCC3)c3c4ccccc4ncn3c2c1 | > 1 | > 10
COC(=O)/C=C/c1ccc(NC(=O)C2(NC(=O)c3ccc4c(C5CCCCC5)c5c6ccccc6ncn5c4c3)CCCC2)cc1 | > 1 | 1 to 10
NC(=O)C1Cc2ccccc2-c2c(C3CCCCC3)c3ccc(C(=O)NC4(C(=O)Nc5ccc(/C=C/C(=O)O)cc5)CCCC4)cc3n2C1 (stereo not drawn) | 0.02 to 1 | 0.01 to 1
CC(C)(C)OC(=O)N1CC(O)Cn2c(c(C3CCCCC3)c3ccc(C(=O)O)cc32)-c2ccccc21 (stereo not drawn) | 0.02 to 1 | 1 to 10
O=C(O)c1ccc2c(C3CCCCC3)c3n(c2c1)CC(O)CNc1ccccc1-3 (stereo not drawn) | 0.02 to 1 | 1 to 10
O=C(O)c1ccc2c(C3CCCCC3)c3n(c2c1)C[C@@H](O)[C@@H](O)c1ncccc1-3 | 0.02 to 1 | 1 to 10
CNC(=O)C1Cc2ccccc2-c2c(C3CCCCC3)c3ccc(C(=O)NC4(C(=O)Nc5ccc(/C=C/C(=O)O)cc5)CCCC4)cc3n2C1 (stereo not drawn) | 0.02 to 1 | 0.01 to 1
CN1CCN(C(=O)C2Cc3ccccc3-c3c(C4CCCCC4)c4ccc(C(=O)NC5(C(=O)Nc6ccc(/C=C/C(=O)O)cc6)CCCC5)cc4n3C2)CC1 (stereo not drawn) | 0.02 to 1 | 0.01 to 1
CN(C)CCNC(=O)C1Cc2ccccc2-c2c(C3CCCCC3)c3ccc(C(=O)NC4(C(=O)Nc5ccc(/C=C/C(=O)O)cc5)CCCC4)cc3n2C1 (stereo not drawn) | 0.02 to 1 | 0.01 to 1
O=C(O)/C=C/c1ccc(NC(=O)C2(NC(=O)c3ccc4c(C5CCCCC5)c5n(c4c3)CC(C(=O)N3CCC(N4CCCC4)CC3)Cc3ccccc3-5)CCCC2)cc1 (stereo not drawn) | 0.02 to 1 | 0.01 to 1
O=C(O)/C=C/c1ccc(NC(=O)C2(NC(=O)c3ccc4c(C5CCCCC5)c5n(c4c3)CC(C(=O)N3CCCCC3)Cc3ccccc3-5)CCCC2)cc1 (stereo not drawn) | 0.02 to 1 | 0.01 to 1
O=C(O)/C=C/c1ccc(NC(=O)C2(NC(=O)c3ccc4c(C5CCCCC5)c5n(c4c3)CC(C(=O)N3CCCC(O)C3)Cc3ccccc3-5)CCCC2)cc1 (stereo not drawn) | 0.02 to 1 | 0.01 to 1
